Measurements from ChEMBL document CHEMBL1201862, “PubChem BioAssay data set” (2004).
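Following 48 hours of exposure in 96-well plates, responses at five concentrations were used to interpolate endpoints linearly. GI50: concentration for 50% inhibition of growth.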 Activity calls are given as the source filed them. Rule as the data show it: active = GI50 up to about 1.1 µM and inactive = higher.

Columns and labels:
Assay in all cases: growth of human tumour cells (NCI), 48 h
A549 = tested on: A549
ACHN = tested on: ACHN
COLO 205 = tested on: COLO 205
HOP-62 = tested on: HOP-62
IGROV-1 = tested on: IGROV-1
LOX IMVI = tested on: LOX IMVI
Malme-3M = tested on: Malme-3M
NCI-H226 = tested on: NCI-H226
NCI-H460 = tested on: NCI-H460
NCI-H522 = tested on: NCI-H522
OVCAR-4 = tested on: OVCAR-4
RPMI-8226 = tested on: RPMI-8226
RXF 393 = tested on: RXF 393
SK-MEL-5 = tested on: SK-MEL-5
SNB-19 = tested on: SNB-19
T47D = tested on: T47D
TK-10 = tested on: TK-10
UACC-257 = tested on: UACC-257
HL-60 = tested on: HL-60
CCRF-CEM = tested on: CCRF-CEM

Compound | GI50 (A549) | GI50 (ACHN) | GI50 (COLO 205) | GI50 (HOP-62) | GI50 (IGROV-1) | GI50 (LOX IMVI) | GI50 (Malme-3M) | GI50 (NCI-H226) | GI50 (NCI-H460) | GI50 (NCI-H522) | GI50 (OVCAR-4) | GI50 (RPMI-8226) | GI50 (RXF 393) | GI50 (SK-MEL-5) | GI50 (SNB-19) | GI50 (T47D) | GI50 (TK-10) | GI50 (UACC-257) | GI50 (HL-60) | GI50 (CCRF-CEM)
Sc1ncnc2c1ncn2Cc1ccco1 | > 100 µM (inactive) | > 100 µM (inactive) | > 100 µM (inactive) | > 100 µM (inactive) | > 100 µM (inactive) | > 100 µM (inactive) | > 100 µM (inactive) | > 100 µM (inactive) | > 100 µM (inactive) | > 100 µM (inactive) | > 100 µM (inactive) | > 100 µM (inactive) | > 100 µM (inactive) | > 100 µM (inactive) | > 100 µM (inactive) | > 100 µM (inactive) | > 100 µM (inactive) | > 100 µM (inactive) |  | 
OC1(C(O)(c2ccc(-c3ccccc3)cc2)c2ccc(-c3ccccc3)cc2)CCCCC1 | 81.5 µM (inactive) | > 100 µM (inactive) | > 100 µM (inactive) | > 100 µM (inactive) | > 100 µM (inactive) | > 100 µM (inactive) |  | > 100 µM (inactive) | 44 µM (inactive) | > 100 µM (inactive) | > 100 µM (inactive) | > 100 µM (inactive) | > 100 µM (inactive) | 63.4 µM (inactive) | > 100 µM (inactive) | > 100 µM (inactive) | > 100 µM (inactive) | > 100 µM (inactive) | > 100 µM (inactive) | 
CN(C)c1ccc(/C=C2\Oc3ccccc3C2=O)cc1 | > 100 µM (inactive) | > 100 µM (inactive) | > 100 µM (inactive) | > 100 µM (inactive) | > 100 µM (inactive) |  |  | > 100 µM (inactive) | > 100 µM (inactive) | 90.4 µM (inactive) | > 100 µM (inactive) | > 100 µM (inactive) | > 100 µM (inactive) | > 100 µM (inactive) | > 100 µM (inactive) | > 100 µM (inactive) | > 100 µM (inactive) | > 100 µM (inactive) | > 100 µM (inactive) | > 100 µM (inactive)
N#C/C(=C1/c2cc([N+](=O)[O-])ccc2-c2c1cc([N+](=O)[O-])cc2[N+](=O)[O-])N1CCCCC1 | > 100 µM (inactive) | > 100 µM (inactive) | > 100 µM (inactive) | 32.4 µM (inactive) | 49.5 µM (inactive) |  | > 100 µM (inactive) | > 100 µM (inactive) |  | 46.6 µM (inactive) | 23.9 µM (inactive) | 17 µM (inactive) | 34.6 µM (inactive) | 91.4 µM (inactive) | > 100 µM (inactive) | > 100 µM (inactive) | > 100 µM (inactive) | > 100 µM (inactive) |  | > 100 µM (inactive)
Oc1ccc(/C=N/c2ccccc2O)cc1 | 54.2 µM (inactive) | 60.7 µM (inactive) | 30.2 µM (inactive) | 67 µM (inactive) | 54.7 µM (inactive) | 26.1 µM (inactive) |  | 94.6 µM (inactive) | 38.9 µM (inactive) | 29.3 µM (inactive) | > 100 µM (inactive) | 22.5 µM (inactive) | > 100 µM (inactive) | 20.2 µM (inactive) | > 100 µM (inactive) | 73.5 µM (inactive) | 59.7 µM (inactive) | 22.3 µM (inactive) | 12.7 µM (inactive) | 44.7 µM (inactive)
CC(NO)/C(=N/O)c1ccco1 (configuration not stated) | > 10 µM (inactive) | > 10 µM (inactive) | > 10 µM (inactive) | > 10 µM (inactive) |  |  | > 10 µM (inactive) | > 10 µM (inactive) | > 10 µM (inactive) | > 10 µM (inactive) | > 10 µM (inactive) | > 10 µM (inactive) | > 10 µM (inactive) |  | > 10 µM (inactive) | > 10 µM (inactive) | > 10 µM (inactive) | > 10 µM (inactive) | > 10 µM (inactive) | > 10 µM (inactive)
COC(=O)CNS(=O)(=O)c1ccc(-c2c3nc(c(-c4ccc(S(=O)(=O)NCC(=O)OC)cc4)c4ccc([nH]4)c(-c4ccc(S(=O)(=O)NCC(=O)OC)cc4)c4nc(c(-c5ccc(S(=O)(=O)NCC(=O)OC)cc5)c5ccc2[nH]5)C=C4)C=C3)cc1 | > 100 µM (inactive) | > 100 µM (inactive) | > 100 µM (inactive) | > 100 µM (inactive) | > 100 µM (inactive) | > 100 µM (inactive) | > 100 µM (inactive) |  | > 100 µM (inactive) | > 100 µM (inactive) | > 100 µM (inactive) | > 100 µM (inactive) | > 100 µM (inactive) | > 100 µM (inactive) | > 100 µM (inactive) | > 100 µM (inactive) | > 100 µM (inactive) | > 100 µM (inactive) | > 100 µM (inactive) | > 100 µM (inactive)
N#Cc1nc(COCCOCc2ccc(F)cc2)oc1N | > 100 µM (inactive) | > 100 µM (inactive) | > 100 µM (inactive) | > 100 µM (inactive) | > 100 µM (inactive) | > 100 µM (inactive) |  | > 100 µM (inactive) | > 100 µM (inactive) | 29 µM (inactive) | > 100 µM (inactive) | > 100 µM (inactive) | > 100 µM (inactive) | > 100 µM (inactive) |  | > 100 µM (inactive) | > 100 µM (inactive) | > 100 µM (inactive) | > 100 µM (inactive) | 64.6 µM (inactive)
COc1ccc2nc3c([N+](=O)[O-])ccc(NCCN(C)C)c3c(N)c2c1 | 1.55 µM (inactive) | 1.09 µM (active) | 0.859 µM (active) | 1.66 µM (inactive) | 1.15 µM (inactive) | 0.537 µM (active) | 1.34 µM (inactive) | 1.97 µM (inactive) | 1.47 µM (inactive) |  | 1.24 µM (inactive) | 0.0703 µM (active) | 1.57 µM (inactive) | 1.81 µM (inactive) | 1.84 µM (inactive) | 1.17 µM (inactive) | 1.6 µM (inactive) | 1.91 µM (inactive) | 0.194 µM (active) | 0.17 µM (active)
CC(C)(C)OC(=O)CC(NC(=O)OC(C)(C)C)C(=O)NC(C(=O)O)C(O)c1ccccc1 (configuration not stated) | > 100 µM (inactive) | > 100 µM (inactive) | > 100 µM (inactive) | > 100 µM (inactive) | > 100 µM (inactive) | > 100 µM (inactive) | 90.4 µM (inactive) | 13.9 µM (inactive) | 69.7 µM (inactive) | > 100 µM (inactive) | > 100 µM (inactive) | 70.1 µM (inactive) | 57.9 µM (inactive) | 56 µM (inactive) | > 100 µM (inactive) | 80.9 µM (inactive) | > 100 µM (inactive) | > 100 µM (inactive) |  | 51.4 µM (inactive)
c1ccc(-c2ccc(-c3ccc(C4=NCCN4)cc3)o2)cc1 | 2.64 µM (inactive) | 2.95 µM (inactive) | 1.73 µM (inactive) | 3.67 µM (inactive) | 2.74 µM (inactive) | 1.93 µM (inactive) |  | 2.99 µM (inactive) | 2.4 µM (inactive) | 2.02 µM (inactive) | 6.11 µM (inactive) | 0.94 µM (active) | 2.56 µM (inactive) | 2.08 µM (inactive) | 2.4 µM (inactive) | 2.65 µM (inactive) | 5.41 µM (inactive) | 2.15 µM (inactive) | 1.79 µM (inactive) | 1.56 µM (inactive)
O=C1/C(=C\c2cccc(Oc3ccccc3)c2)SC(c2ccccc2)N1c1cc(Cl)ccc1Cl (configuration not stated) | 51.5 µM (inactive) | 43.7 µM (inactive) | 53.5 µM (inactive) | 56.5 µM (inactive) | 26.3 µM (inactive) | 16.8 µM (inactive) | 28.2 µM (inactive) |  | 45.4 µM (inactive) | 21 µM (inactive) | 51.2 µM (inactive) | 37 µM (inactive) | 22.8 µM (inactive) | 27 µM (inactive) | 43.4 µM (inactive) | 28.4 µM (inactive) | 47 µM (inactive) | 32.7 µM (inactive) | 15.1 µM (inactive) | 0.0356 µM (active)
CC(=NNC(=S)Nc1ccccc1C)c1cccc(C(C)=NNC(=S)Nc2ccccc2C)n1 | 24.2 µM (inactive) | 4.15 µM (inactive) | 10.9 µM (inactive) | 6.56 µM (inactive) | 26.3 µM (inactive) | 6.9 µM (inactive) | 15.5 µM (inactive) | 9.73 µM (inactive) | 15.3 µM (inactive) |  | 0.321 µM (active) | > 100 µM (inactive) | 13.4 µM (inactive) | 1.3 µM (inactive) | > 100 µM (inactive) | > 100 µM (inactive) | 23.7 µM (inactive) | 27.6 µM (inactive) | 19.7 µM (inactive) | 3.59 µM (inactive)
COc1ccc(C2=C(OC(C)=O)c3cccn3-c3ccccc3S2)cc1 | 7.53 µM (inactive) |  | 2.7 µM (inactive) | 3.1 µM (inactive) | 4.81 µM (inactive) | 4.55 µM (inactive) | 2.7 µM (inactive) |  |  |  | 4.69 µM (inactive) | 2.4 µM (inactive) | 1.61 µM (inactive) | 3.37 µM (inactive) |  | 5.9 µM (inactive) | > 10 µM (inactive) | > 10 µM (inactive) | 0.512 µM (active) | 2.9 µM (inactive)
O=C(CCc1cccc(O)c1)NCCCNC(=O)CCc1cccc(O)c1 | > 100 µM (inactive) | > 100 µM (inactive) | > 100 µM (inactive) | > 100 µM (inactive) | > 100 µM (inactive) | > 100 µM (inactive) | > 100 µM (inactive) |  | > 100 µM (inactive) | > 100 µM (inactive) | > 100 µM (inactive) | > 100 µM (inactive) | > 100 µM (inactive) | > 100 µM (inactive) | > 100 µM (inactive) | > 100 µM (inactive) |  | > 100 µM (inactive) | < 0.01 µM (active) | > 100 µM (inactive)
